From patent US20240270762A1, “PENICILLIN-BINDING PROTEIN INHIBITORS” (priority 2021, published 2024)
Converted amounts (≈) assume the structure as drawn.

Columns and labels:
Test in all cases: microbe, parasite or virus in culture
Type in all cases: cell-based
E. coli ATCC 25922 = conditions: Escherichia coli, ATCC25922, read-out: MIC E. coli 25922
E. coli D22 = conditions: Escherichia coli, D22, read-out: MIC E. coli D22
P. aeruginosa ATCC 35151 = conditions: Pseudomonas aeruginosa, ATCC35151, read-out: MIC P. aeruginosa ATCC 35151
K. pneumoniae 848844 = conditions: Klebsiella pneumoniae, 848844, read-out: MIC K. pneumoniae 848844
K. pneumoniae SI-117 = conditions: Klebsiella pneumoniae, SI117, read-out: MIC K. pneumoniae SI-117
B. pseudomallei Bp82 = conditions: Burkholderia pseudomallei, BP82, read-out: Minimum inhibitory concentration, B. pseudomallei Bp82

SMILES: O=C(O)c1cccc2c1OB(O)[C@@H](NC(=O)C(NC(=O)N1CCN(CC(F)(F)F)C(=O)C1=O)c1ccc(P(=O)(O)O)cc1)C2 (stereo partly drawn) [Example 4, (3R)-3-(2-(2,3-dioxo-4-(2,2,2-trifluoroethyl)piperazine-1-carboxamido)-2-(4-phosphonophenyl)acetamido)-2-hydroxy-3,4-dihydro-2H-benzo[e][1,2]oxaborinine-8-carboxylic acid]
- MIC (E. coli ATCC 25922): > 128 µg/mL
- MIC (E. coli D22): 8 to 16 µg/mL (≈ 12.5 to 24.9 µM)
- MIC (P. aeruginosa ATCC 35151): 8 to 16 µg/mL (≈ 12.5 to 24.9 µM)
- MIC (K. pneumoniae 848844): > 128 µg/mL
- MIC (K. pneumoniae SI-117): > 128 µg/mL

SMILES: NCCN1CCN(C(=O)NC(C(=O)N[C@H]2Cc3cccc(C(=O)O)c3OB2O)c2ccc(P(=O)(O)O)cc2)C(=O)C1=O (stereo partly drawn) [Example 3, (3R)-3-(2-(4-(2-aminoethyl)-2,3-dioxopiperazine-1-carboxamido)-2-(4-phosphonophenyl)acetamido)-2-hydroxy-3,4-dihydro-2H-benzo[e][1,2]oxaborinine-8-carboxylic acid]
- MIC (E. coli ATCC 25922): 32 to 64 µg/mL (≈ 53 to 106 µM)
- MIC (E. coli D22): 8 to 16 µg/mL (≈ 13.3 to 26.5 µM)
- MIC (P. aeruginosa ATCC 35151): < 1 µg/mL
- MIC (K. pneumoniae 848844): > 128 µg/mL
- MIC (K. pneumoniae SI-117): > 128 µg/mL

SMILES: O=C(NCCN1CCN(C(=O)N[C@@H](C(=O)N[C@H]2Cc3ccc(F)c(C(=O)O)c3OB2O)c2cc(F)c(O)c(O)c2Cl)C1=O)Nc1ccc(O)cc1 [Example 279, (R)-3-((R)-2-(2-chloro-5-fluoro-3,4-dihydroxyphenyl)-2-(3-(2-(3-(4-hydroxyphenyl)ureido)ethyl)-2-oxoimidazolidine-1-carboxamido)acetamido)-7-fluoro-2-hydroxy-3,4-dihydro-2H-benzo[e][1,2]oxaborinine-8-carboxylic acid]
- MIC (B. pseudomallei Bp82): < 1 µg/mL

SMILES: CCN1CCN(C(=O)NC(C(=O)N[C@H]2Cc3cccc(C(=O)O)c3OB2O)c2ccc(P(=O)(O)O)cc2F)C(=O)C1=O (stereo partly drawn) [Example 1, (3R)-3-(2-(4-ethyl-2,3-dioxopiperazine-1-carboxamido)-2-(2-fluoro-4-phosphonophenyl)acetamido)-2-hydroxy-3,4-dihydro-2H-benzo[e][1,2]oxaborinine-8-carboxylic acid]
- MIC (E. coli ATCC 25922): > 128 µg/mL
- MIC (E. coli D22): 2 to 4 µg/mL (≈ 3.3 to 6.6 µM)
- MIC (P. aeruginosa ATCC 35151): < 1 µg/mL
- MIC (K. pneumoniae 848844): > 128 µg/mL
- MIC (K. pneumoniae SI-117): > 128 µg/mL

SMILES: CS(=O)(=O)N1CCN(C(=O)N[C@@H](C(=O)N[C@H]2Cc3cccc(C(=O)O)c3OB2O)c2ccc(P(=O)(O)O)cc2)C1=O (single isomer, unassigned) [Example 6]
- MIC (E. coli ATCC 25922): 32 to 64 µg/mL (≈ 52.4 to 105 µM)
- MIC (E. coli D22): 2 to 4 µg/mL (≈ 3.28 to 6.55 µM)
- MIC (P. aeruginosa ATCC 35151): < 1 µg/mL
- MIC (K. pneumoniae 848844): > 128 µg/mL
- MIC (K. pneumoniae SI-117): > 128 µg/mL

SMILES: CCN1CCN(C(=O)NC(C(=O)N[C@H]2Cc3cccc(C(=O)O)c3OB2O)c2cc(P(=O)(O)O)ccc2F)C(=O)C1=O (stereo partly drawn) [Example 2, (3R)-3-(2-(4-ethyl-2,3-dioxopiperazine-1-carboxamido)-2-(2-fluoro-5-phosphonophenyl)acetamido)-2-hydroxy-3,4-dihydro-2H-benzo[e][1,2]oxaborinine-8-carboxylic acid]
- MIC (E. coli ATCC 25922): > 128 µg/mL
- MIC (E. coli D22): 2 to 4 µg/mL (≈ 3.3 to 6.6 µM)
- MIC (P. aeruginosa ATCC 35151): < 1 µg/mL
- MIC (K. pneumoniae 848844): > 128 µg/mL
- MIC (K. pneumoniae SI-117): > 128 µg/mL

SMILES: CS(=O)(=O)N1CCN(C(=O)N[C@H](C(=O)N[C@H]2Cc3cccc(C(=O)O)c3OB2O)c2ccc(P(=O)(O)O)cc2)C1=O (single isomer, unassigned) [Example 5]
- MIC (E. coli ATCC 25922): > 128 µg/mL
- MIC (E. coli D22): 8 to 16 µg/mL (≈ 13.1 to 26.2 µM)
- MIC (P. aeruginosa ATCC 35151): 8 to 16 µg/mL (≈ 13.1 to 26.2 µM)
- MIC (K. pneumoniae 848844): > 128 µg/mL
- MIC (K. pneumoniae SI-117): > 128 µg/mL
